Results taken from patent US4064169A, “Bis-(meta-amidinophenoxy)-compounds and pharmacologically acceptable acid addition salts thereof” (Eisai Co., Ltd., priority 1976, dated 1977).
Structures can show the parent of a compound that is named as a salt.

Assays:
Format in all cases: cell-based
[1] = test system: yeast-like fungi such as Candida, Cryptococcus; test: Antifungal Test (summary)
Protocol: (§1) Respective agar plates were prepared by dissolving compounds under test in aseptic water to make a two fold dilution series, taking each 1 milliliter of said diluted solutions and 9 ml of Sabouraud medium into a petri dish, and sufficiently admixing the same.
(§2) On the other hand, an inoculum was prepared by cultivating an examined fungus (microorganism) on the Sabouraud slant medium and suspending two loopful of the incubated fungus in 10 ml of sterilized physiological saline water.
(§3) One loopful of the inoculum was streaked on the above-mentioned agar plate. After the agar plate was incubated at a defined temperature for a predetermined period of time to determine the minimal inhibitory concentration (M.I.C.).

Candida albicans = test: Anti-candida activity (summary)
Protocol: as §1, §2, §3
(§4) Incubation time: 3 days (72 hours)

Trichomonas vaginalis = test: Anti-trichomonal Test; conditions: 72 h, ASAMI medium containing 20% horse serum, 37° C., 3 days, read-out: minimal inhibitory concentration
Protocol: The compound under test was dissolved in aseptic water, and filtered aseptically to prepare a two fold dilution series. Each 2.6 ml ASAMI medium containing 20% of the horse serum were respectively taken into small test tubes. Onto the medium, there were incubated 0.3 ml of the two fold dilution solution of the compounds and 0.1 ml of the suspension of the ASAMI medium of Trichomonas vaginalis which was cultured at 37° C. for 3 days respectively. Incubation was carried out at 37° C. for 3 days to determine the minimal inhibitory concentration.

[2] = test system: Candida albicans AHU 3656; test: Antifungal Test (agar dilution M.I.C.); conditions: for MIC: Candida albicans
Protocol: as §1, §2, §3
(§5) Incubation temperature:
(§6) Incubation time: 3 days (72 hours) and
as §4
(§7) activity incubation conditions:
(§8) Incubation time 3 days (72 hours)
(§9) Incubation time 7 days (168 hours)
(§10) Incubation time 2 days (48 hours)

[3] = test system: Candida albicans NAKAGAWA IFM 4017; test: Antifungal Test (agar dilution M.I.C.); conditions: Candida albicans
Protocol: as §1, §2, §3, §5, §6, §4, §7, §8, §9, §10

[4] = test system: Candida albicans Yu-1200 IFM 4020; test: Antifungal Test (agar dilution M.I.C.); conditions: Candida albicans
Protocol: as §1, §2, §3, §5, §6, §4, §7, §8, §9, §10

[5] = test system: Candida albicans IFM 4080; test: Antifungal Test (agar dilution M.I.C.); conditions: for MIC: Candida albicans
Protocol: as §1, §2, §3, §5, §6, §7, §8, §9, §10

[6] = test system: Klebsiella pneumonial NO-1; test: Antibacterial Test (agar dilution M.I.C.); conditions: NO1, Table 5, 37° C., 18 hours
Protocol: (§11) A compound under test was dissolved in aseptic water to prepare a two fold dilution series. Each 1 milliliter of the solution was taken in a petri dish. Nine ml of infusion agar medium (Difco) was added to the solution, thereby preparing the agar plate for test. A pre-culture of each test strain in Tripticase soy broth medium (BBL) at 37° C. for 18 hours was streaked on the above-mentioned agar plate, and the said agar plate was incubated at 37° C. for 18 hours to determine the minimal inhibitory concentration (M.I.C.).

Proteus mirabilis OM-1 = test: Antibacterial Test (agar dilution M.I.C.); conditions: OM1, Table 5, 37° C., 18 hours
Protocol: as §11

[7] = test system: Streptococcus hemolyticus Y-73-5; test: Antibacterial Test (agar dilution M.I.C.); conditions: Streptococcus pyogenes, Y735; Table 5; 37° C., 18 hours
Protocol: as §11

[8] = test system: Salmonella typhimurium 1406; test: Antibacterial Test (agar dilution M.I.C.); conditions: Salmonella enterica, Table 5, 37° C., 18 hours
Protocol: as §11

[9] = test system: Staphylococcus aureus 209-P JO-1; test: Antibacterial Test (agar dilution M.I.C.); conditions: Table 5, 37° C., 18 hours
Protocol: as §11

Pseudomonas aeruginosa = test: Antibacterial Test (agar dilution M.I.C.); conditions: Table 5, 37° C., 18 hours
Protocol: as §11

[10] = test system: Escherichia coli NIHJ JC-1; test: Antibacterial Test (agar dilution M.I.C.); conditions: NIHJJC1, Table 5, 37° C., 18 hours
Protocol: as §11

Escherichia coli E-15 = test: Antibacterial Test (agar dilution M.I.C.); conditions: E15, Table 5, 37° C., 18 hours
Protocol: as §11

[11] = test system: Staphylococcus aureus 13-6; test: Antibacterial Test (agar dilution M.I.C.); conditions: 136, Table 5, 37° C., 18 hours
Protocol: as §11

Saccharomyces cerevisiae = test: Antifungal Test (agar dilution M.I.C.); conditions: Table 1, 27° C.
Protocol: as §1, §2, §3, §5
(§12) Incubation time: 3 days (72 hours) and […]

[12] = test system: Candida guilliermondii AHU 3654; test: Antifungal Test (agar dilution M.I.C.); conditions: Meyerozyma guilliermondii, Table 1, 27° C.
Protocol: as §1, §2, §3, §5, §12

[13] = test system: Candida tropicalis AHU 3071; test: Antifungal Test (agar dilution M.I.C.); conditions: Table 1, 27° C.
Protocol: as §1, §2, §3, §5, §12

Cryptococcus neoformans = test: Antifungal Test (agar dilution M.I.C.); conditions: Table 1, 27° C.
Protocol: as §1, §2, §3, §5, §12

Candida ulitis AHU 3053 = test: Antifungal Test (agar dilution M.I.C.); conditions: Table 1, 27° C.
Protocol: as §1, §2, §3, §5, §12

[14] = test system: Staphylococcus aureus 209-P, Staphylococcus aureus 13-6 and Streptococcus pyogenes; test: Antibacterial Test (summary); conditions: 37° C., 18 hours; read-out: minimal inhibitory concentration
Protocol: as §11

[15] = test system: gram-negative bacteria such as Escherichia coli NIHJ and Escherichia coli E-15; test: Antibacterial Test (summary); conditions: 18 h, 37° C., read-out: minimal inhibitory concentration
Protocol: as §11

[16] = Table 1, 27° C., 3 days incubation
[17] = Table 1, 27° C., 7 days incubation

Which antifungal activity [1] does the source give for `N=C(N)c1cccc(OCC2CCC(COc3cccc(C(=N)N)c3)CC2)c1` (stereo not shown) [Compound A, 1,4-Bis-(m,m'-amidinophenoxymethyl)-cyclohexane-dihydrochloride] here?
The antifungal activity was “excellent antifungal activity”.

And the “influence of incubation temperature on antifungal activity” value ([1]; 27° C. and 37° C.)?
Its value is “not influenced by the incubation temperature”.

What about the “anti-candida activity compared with nystatin” value (Candida albicans) of the same compound?
Its value is “more excellent anti-candida activity than that of the nystatin”.

What about the MIC (Trichomonas vaginalis) of the same compound?
The MIC was 200 µg/mL.

What about the MIC ([2]; AHU3656, 48 h, Table 3, 37° C., 2 days) of the same compound?
Its MIC is 3.13 µg/mL.

And the MIC ([2]; AHU3656, 72 h, Table 3, 27° C., 3 days)?
The MIC was 3.13 µg/mL.

What about the MIC ([2]; AHU3656, 168 h, Table 3, 27° C., 7 days) of the same compound?
The MIC was 6.25 µg/mL.

And the M.I.C. [2, 16]?
The M.I.C. was 3.13 µg/mL.

What about the M.I.C. [2, 17] of the same compound?
Its M.I.C. is 6.25 µg/mL.

What about the M.I.C. ([2]; Table 2, 37° C., 3 days (72 hours)) of the same compound?
The M.I.C. was 3.13 µg/mL.

And the M.I.C. ([2]; Table 3, 37° C., 3 days)?
The M.I.C. was 3.13 µg/mL.

What about the MIC ([3]; 48 h, Table 3, 37° C., 2 days) of the same compound?
The MIC was 0.8 µg/mL.

And the MIC ([3]; 72 h, Table 1, 27° C., 3 days incubation)?
Its MIC is 3.13 µg/mL.

And the MIC ([3]; 72 h, Table 2, 37° C., 3 days (72 hours))?
Its MIC is 1.56 µg/mL.

What about the MIC ([3]; 72 h, Table 3, 27° C., 3 days) of the same compound?
The MIC was 3.13 µg/mL.

And the MIC ([3]; 72 h, Table 3, 37° C., 3 days)?
The MIC was 1.56 µg/mL.

And the MIC ([3]; 168 h, Table 1, 27° C., 7 days incubation)?
The MIC was 3.13 µg/mL.

What about the MIC ([3]; 168 h, Table 3, 27° C., 7 days) of the same compound?
Its MIC is 3.13 µg/mL.

What about the MIC ([4]; YU1200IFM4020, 48 h, Table 3, 37° C., 2 days) of the same compound?
The MIC was 0.8 µg/mL.

And the MIC ([4]; YU1200IFM4020, 72 h, Table 1, 27° C., 3 days incubation)?
The MIC was < 1.56 µg/mL.

And the MIC ([4]; YU1200IFM4020, 72 h, Table 2, 37° C., 3 days (72 hours))?
Its MIC is 0.8 µg/mL.

What about the MIC ([4]; YU1200IFM4020, 72 h, Table 3, 27° C., 3 days) of the same compound?
Its MIC is 1.56 µg/mL.

What about the MIC ([4]; YU1200IFM4020, 72 h, Table 3, 37° C., 3 days) of the same compound?
Its MIC is 0.8 µg/mL.

What about the MIC ([4]; YU1200IFM4020, 168 h, Table 1, 27° C., 7 days incubation) of the same compound?
The MIC was 3.13 µg/mL.

What about the MIC ([4]; YU1200IFM4020, 168 h, Table 3, 27° C., 7 days) of the same compound?
Its MIC is 3.13 µg/mL.

What about the MIC ([5]; IFM4080, 48 h, Table 3, 37° C., 2 days) of the same compound?
The MIC was 0.8 µg/mL.

What about the MIC ([5]; IFM4080, 72 h, Table 3, 27° C., 3 days) of the same compound?
The MIC was 3.13 µg/mL.

And the MIC ([5]; IFM4080, 168 h, Table 3, 27° C., 7 days)?
The MIC was 6.25 µg/mL.

What about the M.I.C. [5, 16] of the same compound?
The M.I.C. was 3.13 µg/mL.

And the M.I.C. [5, 17]?
Its M.I.C. is 6.25 µg/mL.

What about the M.I.C. ([5]; Table 3, 37° C., 3 days) of the same compound?
Its M.I.C. is 3.13 µg/mL.

And the MIC [6]?
The MIC was 200 µg/mL.

What about the MIC (Proteus mirabilis OM-1) of the same compound?
The MIC was > 200 µg/mL.

And the MIC [7]?
The MIC was 6.25 µg/mL.

And the MIC [8]?
Its MIC is 200 µg/mL.

What about the MIC [9] of the same compound?
Its MIC is 3.13 µg/mL.

And the MIC (Pseudomonas aeruginosa)?
The MIC was > 200 µg/mL.

What about the MIC [10] of the same compound?
Its MIC is 100 µg/mL.

What about the MIC (Escherichia coli E-15) of the same compound?
Its MIC is 200 µg/mL.

What about the MIC [11] of the same compound?
The MIC was 6.25 µg/mL.

What about the MIC (Saccharomyces cerevisiae; 72 h, 3 days incubation) of the same compound?
The MIC was < 1.56 µg/mL.

And the MIC (Saccharomyces cerevisiae; 168 h, 7 days incubation)?
Its MIC is < 1.56 µg/mL.

What about the MIC ([12]; AHU3654, 72 h, 3 days incubation) of the same compound?
The MIC was 25 µg/mL.

What about the MIC ([12]; AHU3654, 168 h, 7 days incubation) of the same compound?
The MIC was 25 µg/mL.

And the MIC ([13]; AHU3071, 72 h, 3 days incubation)?
Its MIC is 3.13 µg/mL.

What about the MIC ([13]; AHU3071, 168 h, 7 days incubation) of the same compound?
The MIC was 3.13 µg/mL.

And the MIC (Cryptococcus neoformans; 72 h, 3 days incubation)?
The MIC was 3.13 µg/mL.

What about the MIC (Cryptococcus neoformans; 168 h, 7 days incubation) of the same compound?
The MIC was 3.13 µg/mL.

And the MIC (Candida ulitis AHU 3053; AHU3053, 72 h, 3 days incubation)?
The MIC was 3.13 µg/mL.

What about the MIC (Candida ulitis AHU 3053; AHU3053, 168 h, 7 days incubation) of the same compound?
The MIC was 3.13 µg/mL.

And the MIC [14]?
Its MIC is 3.13 to 6.25 µg/mL.

What about the MIC [15] of the same compound?
Its MIC is 100 to 200 µg/mL.
